# Biological target: T1, apo-sGC (sGCβ1 H105F knock-in) (Mus musculus, UniProt O54865, H105F)
# T1 construct: from tissue; host or cells: lung homogenate of homozygous sGCβ1 H105F knock-in mice
# T1 sequence (O54865 1-620 H105F): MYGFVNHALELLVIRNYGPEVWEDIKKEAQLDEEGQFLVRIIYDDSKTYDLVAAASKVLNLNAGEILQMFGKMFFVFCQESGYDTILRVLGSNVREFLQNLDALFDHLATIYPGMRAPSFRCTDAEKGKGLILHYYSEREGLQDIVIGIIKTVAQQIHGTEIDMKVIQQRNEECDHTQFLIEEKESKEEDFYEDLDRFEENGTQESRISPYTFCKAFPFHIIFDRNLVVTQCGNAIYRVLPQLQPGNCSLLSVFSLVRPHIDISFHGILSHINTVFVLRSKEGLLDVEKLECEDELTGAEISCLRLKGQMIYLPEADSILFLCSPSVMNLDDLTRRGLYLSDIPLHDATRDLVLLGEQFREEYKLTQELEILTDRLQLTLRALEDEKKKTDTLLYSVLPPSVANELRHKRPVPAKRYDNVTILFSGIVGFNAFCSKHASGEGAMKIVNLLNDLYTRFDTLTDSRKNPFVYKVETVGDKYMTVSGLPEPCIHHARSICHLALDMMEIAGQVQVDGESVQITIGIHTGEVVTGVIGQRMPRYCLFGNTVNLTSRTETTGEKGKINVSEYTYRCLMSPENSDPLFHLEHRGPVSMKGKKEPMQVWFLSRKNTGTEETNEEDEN
# T1 sequence (Q9ERL9 1-691 partner): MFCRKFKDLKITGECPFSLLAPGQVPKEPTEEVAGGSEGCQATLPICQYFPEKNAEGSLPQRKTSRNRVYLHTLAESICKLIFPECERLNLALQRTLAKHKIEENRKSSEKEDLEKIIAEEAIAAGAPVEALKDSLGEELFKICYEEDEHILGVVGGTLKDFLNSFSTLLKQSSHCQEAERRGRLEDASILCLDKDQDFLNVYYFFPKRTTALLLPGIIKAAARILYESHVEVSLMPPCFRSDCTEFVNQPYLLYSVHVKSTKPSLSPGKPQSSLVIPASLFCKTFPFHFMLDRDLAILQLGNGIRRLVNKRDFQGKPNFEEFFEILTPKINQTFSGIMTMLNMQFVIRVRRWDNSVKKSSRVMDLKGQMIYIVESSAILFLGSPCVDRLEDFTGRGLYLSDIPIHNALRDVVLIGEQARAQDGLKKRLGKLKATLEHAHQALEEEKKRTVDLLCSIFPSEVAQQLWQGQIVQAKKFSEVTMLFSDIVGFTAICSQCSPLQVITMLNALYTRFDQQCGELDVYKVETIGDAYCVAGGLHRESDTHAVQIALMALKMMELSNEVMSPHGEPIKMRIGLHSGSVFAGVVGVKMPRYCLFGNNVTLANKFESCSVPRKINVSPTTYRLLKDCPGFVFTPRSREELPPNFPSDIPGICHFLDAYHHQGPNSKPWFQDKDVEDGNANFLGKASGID
# Assay: sGC activity in lung homogenates of apo-sGC mice
# Type: biochemical
# Description: Adult male Sprague Dawley (SD) rats (age, 10-12 weeks) were obtained from Animal Resources Centre (Western Australia). Animals were housed on a 12 hour day/night cycle at a room temperature of 20±2° C., in the Department of Pharmacology Animal House, Monash University. The animals were fed standard rodent chow and water was available ad libitum. Homozygous male sGC(1^H105F knock-in mice (“apo-sGC mice”) were kindly provided by Tufts Medical Center, Molecular Cardiology Research Center, Boston, Mass., USA (Toonen et al., Nat Commun. 2015; 6:8482. doi: 10.1038/ncomms9482).
# To measure sGC activity, cells were stimulated with 250 μM DEA/NO or 10 μM BAY58-2667 for 3 min at 37° C. Thereafter, cells were immediately lysed in 80% ethanol. Cells were scraped and, after evaporation of ethanol, re-suspended in assay buffer and sonicated. Measurement of sGC activity in crude homogenates of mouse tissue was performed as previously described (Nedvetsky et al., Brain Res. 2002; 950(1-2):148-154. doi: 10.1016/50006-8993(02)03015-9).[9] Briefly, all samples were measured as the formation of cGMP at 37° C. during 10 min in a total incubation volume of […] containing 50 mM triethanolamine-HCl (pH 7.4), 3 mM MgCl2, 3 mM glutathione (Carl Roth, Karlsruhe, Germany), 1 mM IBMX, […], 5 mM creatine phosphate, 0.25 mg/ml creatine kinase and 1 mM or 0.5 mM GTP. After adding sGC activator in the absence or presence of the sGC stimulator the reaction was started by application of GTP solution. Following incubation of each sample for 10 min the reaction was stopped by boiling for 10 min at 95° C. Thereafter the amount of cGMP was subsequently determined by a commercial enzyme immunoassay kit (Enzo Life Sciences, Lorrach, Germany or Biotrend, Cologne, Germany). In some experiments pre-incubation of freshly homogenized tissue with ODQ at 37° C. for 20 min prior measuring sGC activation was required.
compound,measurement,setting,value
"Nc1nc(-c2nn(Cc3ccccc3F)c3ncccc23)ncc1C1CC1 [BAY 41-2272, 5-cyclopropyl-2-[1-(2-fluoro-benzyl)-1H-pyrazolo[3,4-b]pyridin-3-yl]-pyrimidin-4-ylamine]",cGMP formation on stimulation with the sGC stimulator,"10 μM BAY 41-2272, in presence and in absence of 10 μM ODQ (FIG. 11)",cGMP is synthesized
same,"sGC activity, response to compound alone","lung homogenates of apo-sGC mice, compound alone",can also be activated

# Source: US20230087609A1, “USE OF A SOLUBLE GUANYLATE CYCLASE (sGC) STIMULATOR OR OF A COMBINATION OF A sGC STIMULATOR AND AN sGC ACTIVATOR FOR CONDITIONS WHEREIN THE HEME GROUP OF sGC IS OXIDIZED OR WHEREIN sGC IS DEFICIENT IN HEME” (Universiteit Maastricht, priority 2020, published 2023)
